GI50 data for twelve compounds are collected here from US11447471B2, “α,β-unsaturated amide compound” (KYOWA KIRIN CO., LTD., priority 2017, dated 2022).

What all share (format): cell-based
Test [1] has as its system NCI-H226 cells. In words: Cell growth inhibitory effect on human mesothelioma cell line (cell counting kit 8, 6 days). The settings on record: NCI-H226, 144 h. The text has this:
(§1) NCI-H226 cells, a human mesothelioma cell line (ATCC, CRL-5826), NCI-H322 cells, a human lung cancer cell line (the European Collection of Authenticated Cell Cultures, 95111734), OUTOKO cells, a human ovarian cancer cell line (JCRB cell bank, KRB1048) and […] were each subcultured by keeping the cell density under 80% in a RPMI1640 culture medium with 10% fetal bovine serum (FBS). NCI-H226 cells, NCI-H322 cells and SSP-25 cells were each suspended in the RPMI1640 culture medium mentioned above, and plated to a 96-well flat-bottom plate at 500 cells/well in each well, and incubated at 37° C. in an incubator with 5% CO2 for one day. After the incubation, the evaluation of cell growth inhibitory activity was started. OVTOKO cells were suspended in the RPMI1640 culture medium mentioned above, and plated to a 96-well flat-bottom plate at 250 cells/well in each well, and incubated it at 37° C. in an incubator with 5% CO2 for one day. After the incubation, the evaluation of the cell growth inhibitory activity was started. The next day, a test compound was serially diluted to 5 times of its final concentration in the RPM11640 culture medium mentioned above, and the diluted solution was added to each well. In this case, the final concentration of DMSO in each well was adjusted to 0.1%. After the test compound was added, cells were incubated at 37° C. in an incubator with 5% CO2 for 6 days. At the addition of the test compound and 6 days after the addition, the cell counting measurement was performed using a cell counting kit 8 (made by DOJINDO) according to a protocol equivalent to DOJINDO's recommendation. A reagent contained in the kit was added to each plate and color reaction was performed for 2 or 3 hours at 37° C. in an incubator with 5% CO2. After the reaction, an absorbance at wavelength of 450 nm was measured using a microplate reader. A growth inhibition rate was calculated according to the following formula, from which the concentration of a test compound at which cell growth was inhibited by 50% (GI50 value) was determined.
A general note: Tetrazolium dyes change colour on reduction, which living cells bring about.

In test [2] the test system is OVTOKO cells. Nature of the test: Cell growth inhibitory effect on human ovarian cancer cell line (cell counting kit 8, 6 days). The settings on record: 144 h, 6 days incubation.
Excerpt: as §1

The subject of test [3] is NCI-H322 cells. In words: Cell growth inhibitory effect on human lung cancer cell line (cell counting kit 8, 6 days). The settings on record: 144 h; human lung cancer cell line NCI-H322, 6 days incubation.
Excerpt: as §1

Each structure is given as a SMILES string.

As to `C=CC(=O)N[C@@H]1CC[C@H](Oc2ccc(C(F)(F)F)cc2)c2nc(C)ccc21` (relative stereo) [Compound 184, cis-N-[2-Methyl-8-{4-(trifluoromethyl)phenoxy}-5,6,7,8-tetrahydroquinolin-5-yl]acrylamide], the GI50 in test [1] was less than 0.1 µM; in test [2], no more than 3 µM; in test [3], less than 1 µM.

Consider `C=CC(=O)NC1CC[C@H](Oc2ccc(Cl)cc2)c2nc(Cl)ccc21` (stereo in doubt) [Compound 70, cis-N-{2-Chloro-8-(4-chlorophenoxy)-5,6,7,8-tetrahydroquinolin-5-yl}acrylamide], for which the figures for the GI50 in test [1], in test [2] and in test [3] were less than 0.1 µM, no more than 3 µM and less than 1 µM, respectively.

As for `C=CC(=O)NC1CC[C@H](Oc2ccc(Cl)cc2)c2nc(OC)ccc21` (stereo in doubt) [Compound 71, cis-N-{8-(4-Chlorophenoxy)-2-methoxy-5,6,7,8-tetrahydroquinolin-5-yl}acrylamide], the GI50 in test [1] is less than 0.1 µM; in test [2], no more than 3 µM; in test [3] it was less than 1 µM.

Regarding `C=CC(=O)NC1CC[C@H](Oc2ccc(C(F)(F)F)cc2)c2nc(Cl)ccc21` (stereo in doubt) [Compound 76, cis-N-[2-Chloro-8-{4-(trifluoromethyl)phenoxy}-5,6,7,8-tetrahydroquinolin-5-yl]acrylamide], the GI50 in test [1] was less than 0.1 µM; in test [2], no more than 3 µM; in test [3] it was less than 1 µM.

Take `C=CC(=O)NC1CC[C@@H](Oc2ccc(C(F)(F)F)cc2)c2nc(Cl)ccc21` (stereo in doubt) [Compound 82, trans-N-[2-Chloro-8-{4-(trifluoromethyl)phenoxy}-5,6,7,8-tetrahydroquinolin-5-yl]acrylamide]: the GI50 was less than 0.1 µM in test [1], no more than 3 µM in test [2] and less than 1 µM in test [3].

As to `C=CC(=O)NCc1ccc(Oc2ccc(C(F)(F)F)cc2)c2nc(C(F)(F)F)oc12` [Compound 248, N-([2-(Trifluoromethyl)-4-{4-(trifluoromethyl)phenoxy}benzo[d]oxazol-7-yl]methyl)acrylamide], the GI50 is 0.1 to 1 µM in test [1] and less than 1 µM in test [3].

On to `C=CC(=O)NC1CCOc2nc(Oc3ccc(C(F)(F)F)cc3)ccc21` (centres unmarked) [Compound 259, N-[7-{4-(Trifluoromethyl)phenoxy}-3,4-dihydro-2H-pyrano[2,3-b]pyridin-4-yl]acrylamide], for which the concentration for 50% growth inhibition (GI50) in test [1] was 0.1 to 1 µM; in test [3], less than 1 µM.

For the compound `C=CC(=O)NC1COc2ccc(Oc3ccc(C(F)(F)F)cc3)cc21` (centres unmarked) [Compound 262, N-[5-{4-(Trifluoromethyl)phenoxy}-2,3-dihydrobenzofuran-3-yl]acrylamide], the values for the GI50 in test [1] and in test [3] were less than 0.1 µM and less than 1 µM, respectively.

Take `C=CC(=O)NC1COc2c(Br)cc(Oc3ccc(C(F)(F)F)cc3)cc21` (centres unmarked) [Compound 263, N-[7-Bromo-5-{4-(trifluoromethyl)phenoxy}-2,3-dihydrobenzofuran-3-yl]acrylamide]: the values for the GI50 in test [1] and in test [3] were less than 0.1 µM and less than 1 µM, respectively.

On to `C=CC(=O)NC1COc2c(Oc3ccc(C(F)(F)F)cc3)cccc21` (centres unmarked) [Compound 264, N-[7-{4-(Trifluoromethyl)phenoxy}-2,3-dihydrobenzofuran-3-yl]acrylamide], for which the GI50 in test [1] was less than 0.1 µM; in test [3], less than 1 µM.

For the compound `C=CC(=O)NC1COc2cc(Oc3ccc(C(F)(F)F)cc3)ccc21` (centres unmarked) [Compound 265, N-{6-[4-(Trifluoromethyl)phenoxy]-2,3-dihydrobenzofuran-3-yl}acrylamide], the GI50 in test [1] was 0.1 to 1 µM; in test [3], less than 1 µM.

As for `C=CC(=O)NC1COc2cc(C)c(Oc3ccc(C(F)(F)F)cc3)cc21` (centres unmarked) [Compound 266, N-{6-Methyl-5-[4-(trifluoromethyl)phenoxy]-2,3-dihydrobenzofuran-3-yl}acrylamide], the GI50 in test [1] is 0.1 to 1 µM; in test [3] it was less than 1 µM.

In general, GI50 refers to the concentration giving 50% growth inhibition. The low end stands for more potent growth inhibition, the high end for less potent growth inhibition.
